Laboratory results: US7820706B2, “Multiple dose aromatase inhibitor for treating infertility” (Ares Trading S.A., priority 2001, dated 2010)
Counter-ions that a name gives are not always drawn. Like-named read-outs stand apart in the source and are kept apart here.

Experiments:
[1] = system: patients who failed to ovulate or ovulated with endometrial thickness <5 mm in response to CC
Procedure: HCG 10,000 IU was given to trigger ovulation. CC was given in a dose of 50-100 mg on days 3-7 or 5-9.

[2] = system: anovulatory women; details: cited from earlier work
[3] = system: endometrium of normal women; details: morphometric analysis; cited from earlier work
[4] = system: postmenopausal breast cancer patients; details: lethargy, rashes, nausea and fever; cited from earlier work
[5] = molecular target: T1, aromatase (Homo sapiens, UniProt P11511); details: cited from earlier work
T1 sequence (P11511 1-503): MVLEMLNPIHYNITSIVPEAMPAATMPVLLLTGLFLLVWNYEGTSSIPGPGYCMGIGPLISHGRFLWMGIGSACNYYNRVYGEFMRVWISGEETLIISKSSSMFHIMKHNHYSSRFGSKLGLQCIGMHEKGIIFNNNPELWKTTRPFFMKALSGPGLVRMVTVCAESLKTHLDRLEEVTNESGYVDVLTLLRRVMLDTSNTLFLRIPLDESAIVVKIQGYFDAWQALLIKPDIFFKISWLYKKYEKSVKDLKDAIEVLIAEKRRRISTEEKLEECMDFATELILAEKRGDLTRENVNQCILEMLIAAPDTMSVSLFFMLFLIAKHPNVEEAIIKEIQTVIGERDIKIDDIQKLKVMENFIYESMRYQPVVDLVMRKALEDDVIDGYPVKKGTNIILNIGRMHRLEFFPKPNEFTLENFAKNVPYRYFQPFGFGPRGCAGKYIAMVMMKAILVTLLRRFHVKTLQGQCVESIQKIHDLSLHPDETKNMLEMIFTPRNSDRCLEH

[6] = system: patients with PCOS with inadequate response to CC; details: cited from earlier work
[7] = system: patients who failed to ovulate or ovulated with endometrial thickness <5 mm in response to CC; assay: Example 1: letrozole for ovulation induction after CC failure; format: in vivo, human
Source text: HCG 10,000 IU was given to all except one patient to trigger ovulation. Ten patients completed 12 cycles (one patient completed three cycles).

[8] = system: rats; details: rat, in vivo; cited from earlier work
[9] = system: women with PCOS; ovulatory women; details: cited from earlier work
[10] = oral, healthy postmenopausal women; cited from earlier work
[11] = in vivo; cited from earlier work
[12] = system: ovulatory women with unexplained infertility and anovulatory women with PCOS; details: cited from earlier work
[13] = molecular target: T2, aromatase (Rattus norvegicus, UniProt P22443); details: given orally; cited from earlier work
T2 sequence (P22443 1-508): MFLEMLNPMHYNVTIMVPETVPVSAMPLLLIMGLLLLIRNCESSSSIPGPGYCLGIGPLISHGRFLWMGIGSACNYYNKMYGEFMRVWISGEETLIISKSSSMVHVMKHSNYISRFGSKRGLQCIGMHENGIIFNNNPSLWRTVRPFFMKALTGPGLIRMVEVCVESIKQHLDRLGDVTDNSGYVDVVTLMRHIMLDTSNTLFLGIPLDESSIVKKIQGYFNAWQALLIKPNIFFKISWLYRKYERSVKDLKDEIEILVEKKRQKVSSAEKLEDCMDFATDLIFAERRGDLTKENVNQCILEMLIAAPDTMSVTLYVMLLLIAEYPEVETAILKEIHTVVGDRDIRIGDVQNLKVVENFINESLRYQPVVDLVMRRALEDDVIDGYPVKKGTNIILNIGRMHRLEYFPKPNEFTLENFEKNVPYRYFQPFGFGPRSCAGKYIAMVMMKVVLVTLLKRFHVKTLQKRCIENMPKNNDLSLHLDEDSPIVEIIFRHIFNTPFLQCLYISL

[14] = system: mice; details: mouse, in vivo; cited from earlier work
[15] = system: mature female rats; details: cited from earlier work

Structure (SMILES): CCN(CC)CCOc1ccc(C(=C(Cl)c2ccccc2)c2ccccc2)cc1 [CC, clomiphene citrate]
- Day of hCG administration ([1]; mean): 12.6
- Endometrial Thickness ([1]; mean): 0.5 Cm.
- Estradiol on day of hCG administration ([1]; mean): 2145 pmol/L
- Estradiol per mature follicle ([1]; mean): 1278 pmol/L
- Follicles >1.5 Cm on day of hCG administration ([1]; mean): 1.9
- LH on day of hCG administration ([1]; mean): 16 IU/L
- Number of Days from last letrozole tablet to HCG day ([1]; mean): 4.4
- Day of hCG administration ([1]; median): 12
- Endometrial Thickness ([1]; median): 0.4 Cm.
- Estradiol on day of hCG administration ([1]; median): 1668 pmol/L
- Estradiol per mature follicle ([1]; median): 1486 pmol/L
- Follicles >1.5 Cm on day of hCG administration ([1]; median): 2
- LH on day of hCG administration ([1]; median): 8 IU/L
- Number of Days from last letrozole tablet to HCG day ([1]; median): 4
- Day of hCG administration ([1]; range): 11-16
- Endometrial Thickness ([1]; range): 0.4-0.8 Cm.
- Estradiol on day of hCG administration ([1]; range): 362 to 5210 pmol/L
- Estradiol per mature follicle ([1]; range): 177 to 2404 pmol/L
- Follicles >1.5 Cm on day of hCG administration ([1]; range): 1-5
- LH on day of hCG administration ([1]; range): 3-66 IU/L
- Number of Days from last letrozole tablet to HCG day ([1]; range): 2-7
- anovulatory women resistant to CC who fail to ovulate ([2]; doses up to 150 mg daily): 20% to 25%
- women who do not ovulate with CC ([2]; in vivo): 20 to 25%
- effect on the endometrium (glandular density, vacuolated cells) [3]: deleterious effect on the endometrium

Structure (SMILES): CCC1(c2ccc(N)cc2)CCC(=O)NC1=O (centres unmarked) [aminoglutethimide]
- patients stopping treatment because of side effects [4]: 8-15%

Structure (SMILES): CC(C)(C#N)c1cc(Cn2cncn2)cc(C(C)(C)C#N)c1 [anastrozole]
- in vivo inhibition of aromatase [5]: 97%

Structure (SMILES): N#Cc1ccc(C(c2ccc(C#N)cc2)n2cncn2)cc1 [letrozole]
- ovulation, letrozole treated cycles ([6]; 7 of the 10 cycles, PCOS): 70%
- mean number of mature follicles ([6]; 7 ovulatory cycles, mean): 2.6
- number of mature follicles, range ([6]; 7 ovulatory cycles, range): 1 to 4 follicles
- mean estradiol per follicle ([6]; mean): 378 pmol/L
- chemical pregnancy ([6]; of 10 PCOS patients): one
- clinical pregnancy ([6]; of 10 PCOS patients): 2 patients
- pregnancy, patients ([7]; 4 out of 10 patients): 40%
- ovulation, cycles ([7]; 9 of 12 cycles, 2.5 to 5 mg/day): 75%
- Endometrial Thickness ([7]; mean): 0.8 Cm.
- Estradiol on day of HCG admin. ([7]; mean): 1036 pmol
- Endometrial Thickness ([7]; median): 0.8 Cm.
- Estradiol on day of HCG admin. ([7]; median): 988 pmol
- Endometrial Thickness ([7]; range): 0.6-0.9 Cm.
- Follicles >1.5 Cm On day of HCG admin. ([7]; range): 1-3
- lethal dose [8]: approximately 2000 mg/kg
- pregnancy, patients ([9]; PCOS group, 3 patients): 25%
- ovulation, cycles ([9]; PCOS group, 9 of 12 cycles): 75%
- pregnancy, patients ([9]; ovulatory group, one patient): 10%
- mean endometrial thickness ([9]; ovulatory group): 0.8 cm
- mean number of mature follicles ([9]; ovulatory group): 2.3
- half-life [10]: approximately 45 hours
- doses well tolerated [11]: up to 30 mg
- pregnancy, patients ([1]; 5 out of 15 patients): 33%
- ovulation, cycles ([1]; 13 of 17 letrozole cycles): 77%
- Endometrial Thickness ([1]; mean): 0.8 Cm.
- Estradiol per mature follicle ([1]; mean): 392 pmol/L
- Number of Days from last letrozole tablet to HCG day ([1]; mean): 6.7
- Endometrial Thickness ([1]; median): 0.8 Cm.
- Estradiol per mature follicle ([1]; median): 289 pmol/L
- Number of Days from last letrozole tablet to HCG day ([1]; median): 7
- Endometrial Thickness ([1]; range): 0.6-1.1 Cm.
- Estradiol per mature follicle ([1]; range): 107 to 837 pmol/L
- Number of Days from last letrozole tablet to HCG day ([1]; range): 2-9
- FSH dose required for adequate ovarian super ovulation ([12]; letrozole in conjunction with FSH): significantly lower FSH dose
- ovarian response to FSH stimulation ([12]; low responders during ovarian stimulation): improvement in ovarian response to FSH stimulation
- ED50 in vivo [13]: 1 to 3 µg/kg
- lethal dose [14]: approximately 2000 mg/kg
- FSH and LH [15]: increased FSH and LH
- increase in ovarian weight [15]: ~30%
